By MIC is commonly meant the least concentration at which growth counts as inhibited.

Consider four molecules from US5023262A, “Hydrogenated rapamycin derivatives” (American Home Products Corporation, priority 1990, dated 1991).

In brackets after ≈: the same amount, converted by molar mass. Some results are limits rather than exact numbers.

Test [1] has as its system cells from the thymus of normal BALB/c mice. The test is described as follows: Comitogen-induced thymocyte proliferation procedure (LAF). Format: cell-based. The following applies: in vitro, rapamycin 1.0, 72 hours culture with PHA and IL-1. Here is the method:
(§1) Immunosuppressive activity was evaluated in an in vitro standard pharmacological test procedure to measure lymphocyte proliferation (LAF) and in two in vivo standard pharmacological test procedures. The first in vivo procedure was a popliteal lymph node (PLN) test procedure which measured the effect of compounds of this invention on a mixed lymphocyte reaction and the second in vivo procedure evaluated the survival time of a pinch skin graft.
Briefly, cells from the thymus of normal BALB/c mice are cultured for 72 hours with PHA and IL-1 and pulsed with tritiated thymidine during the last six hours. […] Cells are harvested and incorporated; radioactivity is determined. Inhibition of lymphoproliferation is assessed in percent change in counts per minute from non-drug treated controls. The results are expressed by the following ratio: [formula]

Test [2] deals with Candida albicans ATCC 38247. The test is described as follows: Antifungal plate test, inhibition of Candida albicans ATCC 38247. The test is classed as cell-based. The following applies: for MIC: Candida albicans, ATCC38247, read-out: MIC to inhibit growth. The procedure:
(§2) The following represents the typical procedure used. Compound to be tested was placed on sterile dried 1/4" plate disks, and allowed to dry. Agar plates were seeded with fungi and allowed to solidify. The impregnated disks were placed on the seeded Agar surface and incubated for the time required for the particular culture. Results are expressed in MIC (μg/ml) to inhibit growth.

Test [3] deals with Candida albicans ATCC 38246. Put plainly: Antifungal plate test, inhibition of Candida albicans ATCC 38246. The test is classed as cell-based. The following applies: for MIC: Candida albicans, ATCC38246, read-out: MIC to inhibit growth. Here is the method: as §2
The test system of test [4] is Candida albicans ATCC 38248. Put plainly: Antifungal plate test, inhibition of Candida albicans ATCC 38248. Format: cell-based. As to conditions: for MIC: Candida albicans, ATCC38248, read-out: MIC to inhibit growth. Here is the method: as §2
The subject of test [5] is Candida albicans ATCC 10231. Put plainly: Antifungal plate test, inhibition of Candida albicans ATCC 10231. The following applies: for MIC: Candida albicans, ATCC10231, read-out: MIC to inhibit growth. Format: cell-based. Here is the method: as §2
In test [6] the test system is Candida albicans 3669. The test is described as follows: Antifungal plate test, inhibition of Candida albicans 3669. The test is classed as cell-based. The following applies: strain 3669; for MIC: Candida albicans, read-out: MIC to inhibit growth. Here is the method: as §2
Test [7] has as its system pinch skin graft from male DBA/2 donors. The test is described as follows: Survival time of pinch skin graft. The following applies: intraperitoneally; mean ± S.D. Format: in vivo, male BALB/c mice (recipients). The procedure: as §1
The second in vivo test procedure is designed to determine the survival time of pinch skin graft from male DBA/2 donors transplanted to male BALB/c recipients. The method is adapted from Billingham R. E. and Medawar P. B., J. Exp. Biol. 28:385-402, (1951). Briefly, a pinch skin graft from the donor is grafted on the dorsum of the recipient as a homograft, and an autograft is used as control in the same region. […] Untreated recipients serve as rejection control. The graft is monitored daily and observations are recorded until the graft becomes dry and forms a blackened scab. This is considered as the rejection day. The mean graft survival time (number of days±S.D.) of the drug treatment group is compared with the control group.

Test [8] has as its system mixed lymphocyte reaction in popliteal lymph node. The test is described as follows: In vivo popliteal lymph node (PLN) test procedure. The following applies: for PLN Assay (ratio): in vivo, rapamycin 1.0, p.o. daily Day 0 to Day 4. Also on record: species or system C3H mice (BALB/c donors). The procedure: as §1
A mixed lymphocyte reaction (MLR) occurs when lymphoid cells from genetically distinct animals are combined in tissue culture. Each stimulates the other to undergo blast transformation which results in increased DNA synthesis that can be quantified by the incorporation of tritiated thymidine. Since stimulating a MLR is a function of disparity at Major Histocompatibility antigens, an in vivo popliteal lymph node (PLN) test procedure closely correlates to host vs. graft disease. Briefly, irradiated spleen cells from BALB/c donors are injected into the right hind foot pad of recipient C3H mice. The drug is given daily, p.o. from Day 0 to Day 4. On Day 3 and Day 4, tritiated thymidine is given i.p., b.i.d. On Day 5, the hind popliteal lymph nodes are removed and dissolved, and radioactivity counted. The corresponding left PLN serves as the control for the PLN from the injected hind foot. Percent suppression is calculated using the non-drug treated animals as allogenic control. […] Results are expressed by the following ratio: [formula]

The test system of test [9] is transplant rejection. The following applies: cited from earlier work.
Test [10] concerns IgE-like antibodies. The following applies: in vivo; cited from earlier work.
Test [11] concerns multiple sclerosis. As to conditions: in vivo; cited from earlier work.
For test [12] the following is noted: alone or in combination with picibanil; cited from earlier work.
The subject of test [13] is Candida albicans. The following applies: in vitro and in vivo; cited from earlier work.

With 1,2,3,4-Tetrahydrorapamycin [Example 2], the “LAF Assay (ratio)” value in test [1] turned out to be 0.036. Further, the “MIC to inhibit growth” value in test [2] came out at 0.006 µg/mL; in [3] it was 0.05 µg/mL; in [4], 0.0125 µg/mL; in [5], 0.006 µg/mL; in test [6], 0.0125 µg/mL. Moreover, the “Skin Graft Assay (days + SD), mean graft survival time” value (shortened to “Skin Graft Assay (days + SD)”) in test [7] was 7.0 ± 0.9 days.

For `CO[C@H]1C[C@@H]2CC[C@@H](C)[C@@](O)(O2)C(=O)C(=O)N2CCCC[C@H]2C(=O)O[C@H]([C@H](C)C[C@@H]2CC[C@@H](O)[C@H](OC)C2)CC(=O)[C@H](C)/C=C(\C)[C@@H](O)[C@@H](OC)C(=O)[C@H](C)C[C@H](C)CC/C=C/C=C/1C` [Example 1, 1,2-Dihydrorapamycin], the MIC in test [2] is more than 0.4 µg/mL; in test [3], 0.2 µg/mL (≈ 0.218 µM); in [4], 0.2 µg/mL (≈ 0.218 µM); in test [5], 0.4 µg/mL (≈ 0.437 µM); in [6], 0.2 µg/mL (≈ 0.218 µM). The “PLN Assay (ratio)” value in test [8] is recorded as -1.67. Besides, the “Skin Graft Assay (days + SD)” value in test [7] is given as 7.3 ± 0.9 days.

On to `C=CC[C@@H]1/C=C(\C)C[C@H](C)C[C@H](OC)[C@H]2O[C@@](O)(C(=O)C(=O)N3CCCC[C@H]3C(=O)O[C@H](/C(C)=C/[C@@H]3CC[C@@H](O)[C@H](OC)C3)[C@H](C)[C@@H](O)CC1=O)[C@H](C)C[C@@H]2OC` [FK-506], for which, in test [9], the “inhibition of transplant rejection / immunosuppressive effect” value was “effective as immunosuppressive agents”.

Turning to `CO[C@H]1C[C@@H]2CC[C@@H](C)[C@@](O)(O2)C(=O)C(=O)N2CCCC[C@H]2C(=O)O[C@H]([C@H](C)C[C@@H]2CC[C@@H](O)[C@H](OC)C2)CC(=O)[C@H](C)/C=C(\C)[C@@H](O)[C@@H](OC)C(=O)[C@H](C)C[C@H](C)/C=C/C=C/C=C/1C` [Rapamycin, rapamycin], in test [9], the “inhibition of transplant rejection / immunosuppressive effect” value was “effective in inhibiting transplant rejection”. The MIC in test [2] was determined as 0.003 µg/mL (≈ 0.00328 µM); in test [3], 0.025 µg/mL (≈ 0.0273 µM); in test [4], 0.006 µg/mL (≈ 0.00656 µM); in test [5], 0.003 µg/mL (≈ 0.00328 µM); in test [6], 0.025 µg/mL (≈ 0.0273 µM). Further, in [10], the “inhibition of formation of IgE-like antibodies” value is listed as “effectively inhibited the formation of IgE-like antibodies”. In test [8] (6 mg/kg, p.o.), the “Percent suppression (PLN)” value worked out at 86%. The “PLN Assay (ratio)” value in test [8] was 1.0. The “effect in experimental allergic encephalomyelitis model” value in test [11] is “effective in the experimental allergic encephalomyelitis model”. Also, the antitumor activity entry in [12] is reported as “antitumor activity”. Moreover, in [13], the antifungal activity result is “antifungal activity, particularly against Candida albicans, both in vitro and in vivo”. Also, the “Skin Graft Assay (days + SD)” value in [7] turned out to be 12.0 ± 1.7 days.
